Results taken from publication PMC3828267 (PLoS ONE, 2013).
Read-outs that look alike come from different tables or passages of the source.

Assays:
[1] = biological target: T1, α3β4 AChRs (Homo sapiens, UniProt P30926+P32297); assay: Smoldering activation following acute desensitization, α3β4; format: cell-based; details: α3β4, antagonist 10 µM applied after 10 minutes
T1 construct: expressed in transfected cells
Method: (§1) Responses were monitored for 10 minutes, and then specific antagonists were added and responses recorded for another two minutes.

[2] = biological target: T2, α7 AChRs (Homo sapiens, UniProt P36544); details: α7, antagonist 10 µM applied after 10 minutes
T2 sequence (P36544 23-502): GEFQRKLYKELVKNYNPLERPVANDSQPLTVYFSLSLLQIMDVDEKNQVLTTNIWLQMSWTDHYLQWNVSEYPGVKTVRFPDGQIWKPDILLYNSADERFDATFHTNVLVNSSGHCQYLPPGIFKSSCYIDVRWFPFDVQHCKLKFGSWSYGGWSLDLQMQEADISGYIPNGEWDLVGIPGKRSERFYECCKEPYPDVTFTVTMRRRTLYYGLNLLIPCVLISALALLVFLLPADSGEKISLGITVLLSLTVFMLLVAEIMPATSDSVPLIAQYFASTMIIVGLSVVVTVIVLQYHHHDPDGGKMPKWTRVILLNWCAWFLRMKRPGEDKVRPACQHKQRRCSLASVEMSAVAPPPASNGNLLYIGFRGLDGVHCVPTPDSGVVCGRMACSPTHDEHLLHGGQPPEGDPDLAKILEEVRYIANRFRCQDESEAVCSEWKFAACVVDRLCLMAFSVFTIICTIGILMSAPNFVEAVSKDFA
Method: as §1

[3] = biological target: T3, human α4β2 AChRs (Homo sapiens, UniProt P17787+P43681); assay: Acute activation, FLEXStation membrane potential dye, α4β2 cell line; format: cell-based
T3 construct: expressed in transfected cells
T3 sequence (P43681 29-627 limits assumed): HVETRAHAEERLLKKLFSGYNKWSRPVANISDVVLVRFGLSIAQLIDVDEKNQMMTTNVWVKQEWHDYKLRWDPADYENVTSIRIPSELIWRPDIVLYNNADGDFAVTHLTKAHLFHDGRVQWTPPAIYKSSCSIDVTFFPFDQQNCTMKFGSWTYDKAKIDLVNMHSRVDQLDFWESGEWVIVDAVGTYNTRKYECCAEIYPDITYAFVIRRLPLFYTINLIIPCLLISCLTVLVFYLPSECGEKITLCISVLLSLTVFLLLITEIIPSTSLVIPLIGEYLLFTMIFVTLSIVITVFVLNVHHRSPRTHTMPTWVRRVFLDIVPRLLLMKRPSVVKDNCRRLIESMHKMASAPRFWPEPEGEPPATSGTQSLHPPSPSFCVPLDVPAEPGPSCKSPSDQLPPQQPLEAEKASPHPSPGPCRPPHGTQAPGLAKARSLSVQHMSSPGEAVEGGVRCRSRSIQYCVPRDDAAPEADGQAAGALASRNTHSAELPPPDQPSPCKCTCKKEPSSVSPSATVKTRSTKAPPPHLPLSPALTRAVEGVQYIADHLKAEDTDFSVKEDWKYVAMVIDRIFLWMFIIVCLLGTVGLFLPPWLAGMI
T3 sequence (P17787 26-502): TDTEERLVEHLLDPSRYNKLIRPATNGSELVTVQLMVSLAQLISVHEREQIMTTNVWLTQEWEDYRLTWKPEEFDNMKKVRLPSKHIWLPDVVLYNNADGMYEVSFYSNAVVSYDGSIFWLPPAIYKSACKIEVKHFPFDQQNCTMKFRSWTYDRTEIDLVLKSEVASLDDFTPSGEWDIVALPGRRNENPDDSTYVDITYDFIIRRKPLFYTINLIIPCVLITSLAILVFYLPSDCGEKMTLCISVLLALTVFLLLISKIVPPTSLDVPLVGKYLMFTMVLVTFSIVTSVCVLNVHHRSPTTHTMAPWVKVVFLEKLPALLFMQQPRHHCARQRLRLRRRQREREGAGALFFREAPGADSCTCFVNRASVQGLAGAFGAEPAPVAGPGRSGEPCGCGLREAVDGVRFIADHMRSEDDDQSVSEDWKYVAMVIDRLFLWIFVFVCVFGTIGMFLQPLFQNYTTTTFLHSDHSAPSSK
Method: (§2) The parental cell line used for transfections was tsA201, derived from the human embryonic kidney cell line (HEK) 293 [33]. […] The cell line permanently expressing α3β4 AChRs has been described, [34]. A stable cell line expressing functional α7 AChRs was prepared by initially transfecting the tsA201 cell line with cDNA for α7 and subsequently transfecting with cDNA for the AChR-selective chaperone, human RIC-3.
(§3) Responses to nicotinic agonists were determined using a FLEXStation microplate fluorometer (Molecular Devices, Sunnyvale, CA) as described. For cell lines expressing α4β2 and α3β4 AChRs, the cells were plated at 10^5 cells/ml (100 µl/well) in black-walled clear-bottom 96 well plates (Costar, Fisher Scientific, Pittsbugh, PA), and incubated for 48 hours prior to assaying responses to various nicotinic agonists. The α7/RIC-3 expressing cells were plated at 5×10^5/ml in black-walled clear-bottom 96 well BioCoat plates (BD Biosciences, Franklin Lakes, NJ) in the continued presence of VPA and PBA, with the addition of 5% human AB serum (Pel-Freez Biologicals, Rogers, AR) to further increase expression of α7 [35]. The cells were then grown for 24 hours prior to the assay.
(§4) To measure responses to various nicotinic agonists, 100 µl of a fluorescent dye which is sensitive to changes in membrane potential (Molecular Devices) was added to the wells. The dye was prepared according to the manufacturer’s instructions, with the addition of atropine (0.5 µM) to block muscarinic responses. The plates were then incubated at 37°C for one hour prior to the assay. Serial dilutions of agonists were then prepared in Hanks Balanced Salt Solution (HBSS) in V-shaped 96-well plates (Fisher Scientific Co, Pittsburgh, PA). Fluorescent responses were measured in the FLEX Station at 25°C, with an excitation wavelength of 530 nm and an emission wavelength of 565 nm. Various agonists (50 µl) were added after the first 20 seconds and responses were followed for 60–120 seconds.
(§5) Data were graphed using GraphPad Prism software. Non-linear models (sigmoidal dose-response with variable slope or two site competition) were used to fit the concentration response curves. The EC50 and IC50 were calculated from the curves. Kaleidagraph software was used to determine Hill slopes and standard errors of the EC50 and IC50.

[4] = biological target: T1, α3β4 AChRs; assay: Acute activation, FLEXStation membrane potential dye, α3β4 cell line; format: cell-based; details: α3β4
Method: as §2, §3, §4, §5

[5] = biological target: T3, human α4β2 AChRs; assay: Chronic desensitization (16 h agonist, then ACh response) and calculated smoldering activation, α4β2 cell line; format: cell-based; details: for IC50: overnight (16 h) agonist, first (more sensitive) component, read-out: Desensitization IC50; for Hill (desensitization): first component
Method: (§6) To measure desensitization, plates were prepared as for agonist assays. Sixteen hours prior to the assay, serial dilutions of agonists, prepared in regular growth medium, were added to the plates. One hour before the assay, the membrane potential-sensitive fluorescent dye with 0.5 µM atropine was added to the wells. […] Each data point represents the average of peak values for individual dose response curves from 4–8 wells.
as §5
(§7) Responses for the three different AChRs are shown in Figures 3, 4, 5, 6, along with the dose response curves for activation (the same as shown in Figure 2). The range of concentrations at which both sustained activation and desensitization can occur (“smoldering activation”) was calculated by multiplying the acute response to agonists at each concentration by the fractional response remaining after desensitization.

[6] = biological target: T1, α3β4 AChRs; assay: Chronic desensitization (16 h agonist, then ACh response) and calculated smoldering activation, α3β4 cell line; format: cell-based; details: α3β4: 1.0 mM ACh
Method: as §6, §5, §7

[7] = biological target: T4, (α4β2)2β2 AChRs (Homo sapiens, UniProt P17787+P43681); assay: Sazetidine-A desensitization of α4β2 cell line enriched for (α4β2)2β2 by β2 transfection and nicotine; format: cell-based; details: 6 h sazetidine-A, 3 µM and 100 µM ACh curves overlapped
T4 construct: expressed in transfected cells
T4 sequence (P43681 29-627 limits assumed): as the sequence (P43681 29-627 limits assumed) above
T4 sequence (P17787 26-502): as the sequence (P17787 26-502) above
Excerpt: To determine which stoichiometry of α4β2 AChRs was affected by sazetidine-A, we performed short term transfection of β2 subunits into the α4β2 expressing cell line. To increase the expression of the higher sensitivity (α4β2)2β2 stoichiometry, the cell line expressing α4 and β2 was cotransfected with human β2 (pRc-CMV/Geneticin) using the FuGene6 transfection agent (Roche Diagnostics, Indianapolis, IN).

[8] = set-up: method as in PMID 22899751; details: mice treated with 2 mg/kg; cited from earlier work
[9] = system: (α4β2)2α4 AChRs; details: cited from earlier work
[10] = biological target: T4, (α4β2)2β2 AChRs; details: cited from earlier work
[11] = biological target: T2, α7 AChRs; assay: Acute activation, FLEXStation membrane potential dye, α7/RIC-3 cell line; format: cell-based; set-up: expressed in transfected cells; grown in VPA and PBA; details: α7
Method: as §2, §3, §4, §5

[12] = biological target: T2, α7 AChRs; assay: Chronic desensitization (16 h agonist, then ACh response) and calculated smoldering activation, α7 cell line; format: cell-based; set-up: expressed in transfected cells; grown in VPA and PBA; details: α7: 10 µM ACh
Method: as §6, §5, §7

[13] = overnight (16 h) agonist, read-out: Desensitization IC50

T1 sequence (P32297 32-505): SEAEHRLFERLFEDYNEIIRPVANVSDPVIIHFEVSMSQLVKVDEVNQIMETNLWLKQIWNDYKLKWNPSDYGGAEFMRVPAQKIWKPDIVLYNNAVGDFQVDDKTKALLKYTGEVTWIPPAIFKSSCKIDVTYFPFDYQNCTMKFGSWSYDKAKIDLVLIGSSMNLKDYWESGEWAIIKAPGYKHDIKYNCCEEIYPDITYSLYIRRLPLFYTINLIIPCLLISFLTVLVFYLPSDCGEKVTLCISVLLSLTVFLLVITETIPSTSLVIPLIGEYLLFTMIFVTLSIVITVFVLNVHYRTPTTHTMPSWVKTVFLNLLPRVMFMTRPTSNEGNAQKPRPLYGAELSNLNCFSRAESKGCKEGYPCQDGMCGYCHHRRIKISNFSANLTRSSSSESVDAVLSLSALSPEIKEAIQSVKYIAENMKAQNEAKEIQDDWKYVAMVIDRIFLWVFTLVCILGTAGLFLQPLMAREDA
T1 sequence (P30926 22-498): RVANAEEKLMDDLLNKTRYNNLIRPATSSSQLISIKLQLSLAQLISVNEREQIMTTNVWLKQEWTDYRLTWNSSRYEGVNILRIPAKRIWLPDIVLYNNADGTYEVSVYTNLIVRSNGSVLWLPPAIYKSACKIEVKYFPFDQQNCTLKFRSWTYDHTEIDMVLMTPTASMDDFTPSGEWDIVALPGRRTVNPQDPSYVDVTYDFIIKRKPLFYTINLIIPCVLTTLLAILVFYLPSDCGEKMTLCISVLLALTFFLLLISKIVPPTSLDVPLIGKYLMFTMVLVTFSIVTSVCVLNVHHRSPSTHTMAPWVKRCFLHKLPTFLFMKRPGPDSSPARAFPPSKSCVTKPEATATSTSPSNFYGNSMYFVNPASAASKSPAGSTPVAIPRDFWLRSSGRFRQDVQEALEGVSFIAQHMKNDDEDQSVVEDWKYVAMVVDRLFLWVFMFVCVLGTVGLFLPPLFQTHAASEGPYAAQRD

CNC1(C)C2CCC(C2)C1(C)C (stereo not shown) [MCA, mecamylamine]
Effect of antagonist on sustained agonist response [1]: abrogated

CCN1C[C@]2(COC(=O)c3ccccc3N3C(=O)C[C@H](C)C3=O)CC[C@H](OC)[C@@]34[C@@H]5C[C@H]6[C@H](OC)[C@@H]5[C@](O)(C[C@@H]6OC)[C@@](O)([C@@H](OC)[C@H]23)[C@@H]14 [MLA, methyllycaconitine]
Effect of antagonist on residual agonist response [2]: abrogated

OCCCCC#Cc1cncc(OC[C@@H]2CCN2)c1 [Sazetidine-A]
Efficacy (%) (relative to ACh) ([3]; α4β2): 44% | Agonist type (full or partial) ([3]; α4β2, mixture of stoichiometries): partial agonist | Hill (activation) ([3]; α4β2, higher sensitivity component or monophasic curve): 1.2 | EC50 ([3]; α4β2 cell line, mixed stoichiometries, higher sensitivity component where two-site fit, else monophasic, read-out: Activation EC50): 2.3 ± 0.3 nM | Agonist type (full or partial) [4]: full agonist | Efficacy (%) (relative to ACh) [4]: 100% | Hill (activation) [4]: 1.3 | EC50 ([4]; read-out: Activation EC50): 170 ± 30 nM | Area of overlap of activation and desensitization curves centered at ([5]; (α4β2)2β2 AChRs, 3 µM ACh): 1.5 nM | Extent of desensitization of α4β2 AChRs to ACh ([5]; prolonged exposure, up to high concentrations): full desensitization was not reached even at high concentrations | Concentration from which the desensitization dose response curve shows a plateau ([5]; α4β2, assayed with 100 µM ACh): around 10 nM | Intercept of Activation and Desensitization Curves ([5]; α4β2: 3 µM ACh ((α4β2)2β2 stoichiometry), centre of smoldering activation): 0.0015 µM | Intercept of Activation and Desensitization Curves ([5]; α4β2: 3 µM ACh ((α4β2)2β2 stoichiometry), centre of smoldering activation, listed as sazetidine-A): around 0.0015 µM | IC50 ([5]; α4β2: 3 µM ACh): 0.48 ± 0.02 nM | Hill (desensitization) ([5]; α4β2: 3 µM ACh): −0.9 | Intercept of Activation and Desensitization Curves ([5]; α4β2: 100 µM ACh (both stoichiometries)): 0.002 µM | IC50 ([5]; α4β2: 100 µM ACh): 0.26 ± 0.2 nM | Hill (desensitization) ([5]; α4β2: 100 µM ACh): −0.6 | Hill (desensitization) [6]: −0.5 | IC50 [6, 13]: 330 ± 100 nM | Stoichiometry of α4β2 desensitized [7]: desensitizes only the (α4β2)2β2 stoichiometry | Brain levels [8]: 150 nM | Serum levels [8]: 1600 nM | Activity ([9]; (α4β2)2α4, Xenopus oocytes expressing human α4 and β2 subunits): 6% | Agonist type ([9]; (α4β2)2α4, concatenated AChRs in Xenopus oocytes): partial agonist with very low efficacy | Efficacy ([9]; (α4β2)2α4 stoichiometry, concatenated AChRs in Xenopus oocytes): < 1% | Agonist type ([10]; (α4β2)2β2, Xenopus oocytes expressing human α4 and β2 subunits): full agonist | Agonist type ([10]; (α4β2)2β2, concatenated AChRs in Xenopus oocytes): full agonist | Agonist type (full or partial) [11]: full agonist | Efficacy (%) (relative to ACh) [11]: 100% | Hill (activation) [11]: 1.6 | EC50 ([11]; read-out: Activation EC50): 1200 ± 80 nM | Hill (desensitization) [12]: −2.9 | Intercept of Activation and Desensitization Curves [12]: 1.5 µM | IC50 [12, 13]: 3500 ± 400 nM
